Results on two compounds are retold here after article PMC5620575 (Pharmaceutics, 2017).

In brackets after ≈: the same amount, converted by molar mass.

The test system of one series is Streptococcus pneumoniae. Also noted: method as in PMID 12467705, PMID 15911326, PMID 17140706, PMID 19376613, PMID 23811087. The settings on record: cited from earlier work.
Series [1] can be described thus: biopharmaceutical classification system (BCS) class. Particulars: assigned from lower aqueous solubility than Lzd and calculated Log P less than 1.7.
The test system of another series is Moraxella catarrhalis. Also noted: method as in PMID 12467705, PMID 15911326, PMID 17140706, PMID 19376613, PMID 23811087. Particulars: cited from earlier work.
A short description of series [2]: pharmacokinetics after single oral administration as microemulsion. The series is classed as in vivo. The settings on record: plasma, rabbit, 20 mg/kg, n = 3; for AUC / Cmax / Tmax: New Zealand White; for bioavailability: White New Zealand. On the procedure:
Three groups of rabbits (n = 3, each) received 20 mg/kg oral dose of each compound in the form of microemulsion through a pediatric feeding tube. After administration, serial blood samples were obtained through the IV catheter, over a period of 10 h. Plasma was obtained from blood by centrifugation, and samples were kept at −80 °C until analysis.
(§1) The pharmacokinetic parameters for each of the three compounds including half-life (t1/2), volume of distribution (Vd), elimination rate constant (k), area under the plasma concentration-time curve (AUC), total body clearance (CLT), renal clearance (CLR), and oral bioavailability (F) were determined using the general pharmacokinetic parameter calculation procedures using PKPD tools for Microsoft Excel. The obtained pharmacokinetic parameters for each compound were compared using Statistical Package of Social Sciences (SPSS) to determine the difference in the pharmacokinetic behavior for the three compounds.

A short description of series [3]: blood to plasma partition. Particulars: heparinized whole blood, rabbit blood, 37 °C, n = 3. The class given is in vitro ADME. On the procedure: The spiked blood samples were kept at 37 °C in a shaking water bath for one hour, and plasma was then obtained by centrifugation at 37 °C. Aliquots of about 400 μL, of each plasma sample were kept frozen at −80 °C until analysis. The blood to plasma distribution ratio was determined from the ratio of the nominal total whole blood concentration and the measured plasma concentration for each compound.

Series [4] is described as follows: pharmacokinetics after single oral administration as suspension. The series is classed as in vivo. The settings on record: New Zealand White, plasma, rabbit, 20 mg/kg, n = 4. The procedure:
The pediatric feeding tube was pushed until it reached the stomach.
(§2) Three groups of rabbits (n = 4, each) received 20 mg/kg oral dose of each compound. […] Accurately weighted amounts of each compound were dissolved/suspended in 20 mL of warm normal saline using an ultrasound water bath. […] The solutions/suspensions of the three compounds were administered orally to the rabbits using a pediatric feeding tubes. After oral administration of each compound, serial blood samples were obtained through the IV catheter, over a period of 10 h after administration. Plasma was obtained from blood by centrifugation, and samples were kept at −80 °C until analysis.
as §1

The test system of the next series is Heamophilus influenzae. Also noted: method as in PMID 12467705, PMID 15911326, PMID 17140706, PMID 19376613, PMID 23811087. The settings on record: unit printed only for the neighbouring MICs of the sentence; cited from earlier work.
Series [5] can be described thus: solubility observed on preparing the oral dose in normal saline. The series is classed as physicochemical. Particulars: 20 mg/kg oral dose in 20 mL of warm normal saline. The procedure:
as §2

As to `O=C1O[C@@H](Cn2ccnn2)CN1c1ccc(N2CCN(C(=O)C(F)(F)F)CC2)c(F)c1` [PH051], in the series on Streptococcus pneumoniae, the MIC is 1.0 µg/mL (≈ 2.26 µM). Besides, the BCS class result in series [1] is “Class IV”. In the series on Moraxella catarrhalis, the MIC was 8.0 µg/mL (≈ 18.1 µM). In series [2], the AUC amounted to 1080 ± 426 ng·h/mL, the Cmax came to 731 ± 412 ng/mL, the Tmax is 0.5 h and the bioavailability was 13.9%. In addition, in series [3], the blood plasma ratio at 1 h, 250 μg/L turned out to be 0.772 ± 0.022 and the blood plasma ratio at 1 h, 1000 μg/L turned out to be 0.833 ± 0.015. For the same compound, in series [4], the AUC was found to be 369 ± 378 ng·h/mL, the Cmax came to 69.7 ± 14.8 ng/mL, the Tmax is 1 h and the bioavailability is 4.73%. For the same compound, the MIC with Heamophilus influenzae is 64 µg/mL (≈ 145 µM). In series [5], the “solubility (observed)” value is listed as “least water-soluble of the three compounds”.
As to `O=C1O[C@@H](Cn2ccnn2)CN1c1ccc(N2CCOCC2)c(F)c1` [PH027], the MIC in the series with Streptococcus pneumoniae is 0.5 µg/mL (≈ 1.44 µM). Also, the BCS class entry in series [1] was “Class IV”. Also, the MIC in the series on Moraxella catarrhalis was more than 16.0 µg/mL. Besides, in series [2], the AUC came to 16600 ng·h/mL, the highest level (Cmax) was 2870 ± 392 ng/mL, the Tmax was 2 h and the bioavailability worked out at 72.9%. For the same compound, in series [3], the blood plasma ratio at 1 h, 250 μg/L turned out to be 0.96 ± 0.032 and the blood plasma ratio at 1 h, 1000 μg/L stood at 1.01 ± 0.021. Besides, in series [4], the AUC is 5010 ± 2430 ng·h/mL, the highest level (Cmax) was 1620 ± 820 ng/mL, the Tmax was 1 h and the bioavailability was 22.1%.
